Data taken from ChEMBL document CHEMBL3301361, “Experimental in vitro DMPK and physicochemical data on a set of publicly disclosed compounds”.
Values after ≈ are worked out from the molar mass of the structure shown.

Key:
[1] = physchem; settings: octan-1-ol/water, pH 7.4, LogD7.4
[2] = physchem; settings: pH 7.4 buffer

| Structure (SMILES) | logD [1] | solubility thermodynamic [2] [µM] |
| --- | --- | --- |
| Nc1ncc(-c2cnn(C3CCN(C(=O)CO)CC3)c2)cc1-c1nc2ccccc2o1 | 3.2 | 2 (≈ 0.837 µg/mL) |
| CS(=O)(=O)c1cccc(Nc2nccc(Nc3cccc4[nH]ncc34)n2)c1 | 2.91 | 6.8 (≈ 2.59 µg/mL) |
| CS(=O)(=O)c1cccc(Nc2nccc(N(CC#N)c3c(Cl)ccc4c3OCO4)n2)c1 | 3.16 | 1.3 (≈ 0.595 µg/mL) |
| c1cc(Nc2ccnc(Nc3cc(N4CCOCC4)cc(N4CCOCC4)c3)n2)c2cn[nH]c2c1 | 3.05 | 2.5 (≈ 1.18 µg/mL) |
| CN(c1ccnc(Nc2cccc(S(C)(=O)=O)c2)n1)c1cccc2[nH]ncc12 | 3.21 | 13.5 (≈ 5.33 µg/mL) |
| O=C(c1scc2c1CCCC2)N1CCCCC1 | 3.16 | 871 (≈ 217 µg/mL) |
| Cc1cccc(NS(=O)(=O)c2cccc3nonc23)c1 | 3 | 81.3 (≈ 23.5 µg/mL) |
| Cc1cc2c(C)cc(=O)oc2c2c1NCCC2 | 2.9 | 30.9 (≈ 7.08 µg/mL) |
| O=C(/C=C/Sc1nc[nH]n1)c1ccc(Cl)cc1 | 3.1 | 35.5 (≈ 9.43 µg/mL) |
| OCCNCc1cc(Br)ccc1OCc1ccc(Cl)cc1 | 2.98 | 229 (≈ 84.9 µg/mL) |
| O=C(Cn1cnc2ccccc21)c1ccc(Br)cc1 | 3.22 | 129 (≈ 40.6 µg/mL) |
| CC(=O)Nc1cc(CN2C(=O)N(c3ccc(SC(F)(F)F)cc3)C(=O)C2(C)C)ccn1 | 2.93 | 13.2 (≈ 5.97 µg/mL) |
| COc1ccc(C)c(N(C)c2ccnc(Nc3cc(N4CCOCC4)cc(N4CCOCC4)c3)n2)c1 | 3.18 | 11.5 (≈ 5.64 µg/mL) |
| COc1cc(CO)cc(N(C)c2ccnc(Nc3cc(N4CCOCC4)cc(N4CCOCC4)c3)n2)c1 | 3 | 195 (≈ 98.8 µg/mL) |
| Cc1ccc(CO)cc1N(C)c1ccnc(Nc2cc(CN3CCOCC3)cc(N3CCOCC3)c2)n1 | 3 | 372 (≈ 187 µg/mL) |
| COc1cc(N2CCN(CCO)CC2)ccc1Nc1ncc(Cl)c(-c2cnc3ccccn23)n1 | 3.2 | 66.1 (≈ 31.7 µg/mL) |
| COc1cc(N2CCN(C(C)=O)CC2)ccc1Nc1ncc(C)c(-c2cnc3ccccn23)n1 | 2.9 | 5 (≈ 2.29 µg/mL) |
| COc1cc(N2CCN(C(C)=O)CC2)ccc1Nc1ncc(OC)c(-c2cnc3ccccn23)n1 | 3.2 | 1.3 (≈ 0.616 µg/mL) |
| COc1cc(N2CCN(C(C)=O)CC2)ccc1Nc1ncc(Cl)c(-c2cnc3c(CO)cccn23)n1 | 3.1 | 0.5 (≈ 0.254 µg/mL) |
| COc1cc(N2CCN(C(C)=O)CC2)ccc1Nc1ncc(Cl)c(-c2cnc3cc(CO)ccn23)n1 | 3.1 | 22.9 (≈ 11.6 µg/mL) |
| O=C(Nc1cccc(O)c1)c1ccc(OCCCN2CCCC2)cc1OCc1ccccc1 | 3.07 | 6.6 (≈ 2.95 µg/mL) |
| CCOC(=O)c1ccc(OCCC2CN(c3ccc(C)nn3)C2)cc1 | 3.22 | 347 (≈ 118 µg/mL) |
| CCOC(=O)c1ccc(OCC2CN(c3ccc(C)nn3)C2)cc1 | 3.1 | 141 (≈ 46.3 µg/mL) |
| COc1cc2ncnc(Nc3cc(NC(=O)c4ccnc(N5CCOCC5)c4)ccc3C)c2cc1OCCN1CCOCC1 | 3.19 | 66.1 (≈ 39.6 µg/mL) |
| COc1cc2c(Nc3ccc(Br)cc3F)ncnc2cc1OC[C@@H]1CCCN(C)C1 | 3.05 | 170 (≈ 80.7 µg/mL) |
| O=C(Nc1ccc(Oc2cccnc2)nc1)c1nnc(Nc2ccccc2F)o1 | 3.1 | 77.6 (≈ 30.4 µg/mL) |
| CCCSc1nc2ccc(NC(=O)CCNC(N)=O)cc2s1 | 2.9 | 93.3 (≈ 31.6 µg/mL) |
| COc1cc2ncnc(Nc3cccc(Cl)c3F)c2cc1CN1C[C@H](OC)C[C@@H]1C(N)=O | 3.09 | 436 (≈ 201 µg/mL) |

| Structure (SMILES) | logD [1] | solubility thermodynamic [2] [µM] |
| --- | --- | --- |
| C[C@@H]1CN(C(=O)OC(C)(C)C)CCN1c1ncc(OCc2ccc(C#N)cc2)cn1 | 2.89 | 3.4 (≈ 1.39 µg/mL) |
| Cc1cc(Nc2nc(NCc3cc(C)no3)ncc2Br)[nH]n1 | 2.92 | 61.7 (≈ 22.5 µg/mL) |
| COCCCc1cc(Nc2nc(NCc3cc(C)no3)ncc2Br)[nH]n1 | 3.07 | 120 (≈ 50.8 µg/mL) |
| COc1cc(CCc2cc(Nc3ccnc(NCc4cc(C)no4)n3)n[nH]2)cc(OC)c1 | 3.1 | 0.6 (≈ 0.261 µg/mL) |
| CCCSc1nc(N2CCOCC2)ccc1C(=O)N[C@H]1C2CC3CC1C[C@](O)(C3)C2 | 3.2 | 479 (≈ 207 µg/mL) |
| C[C@H](NC1=NC(=O)[C@@](C)(C(F)(F)F)S1)c1ccccc1F | 3.1 | 219 (≈ 70.1 µg/mL) |
| CN1CCN([C@H]2C[C@@H](c3nc(-c4ccc5ccc(-c6ccccc6)nc5c4)c4c(N)nccn43)C2)CC1 | 3.2 | 204 (≈ 100 µg/mL) |
| C[C@H](CN(C)C(=O)CO)Oc1cccc2ncnc(Nc3ccc(OCc4ccccn4)c(Cl)c3)c12 | 3.22 | 12.6 (≈ 6.4 µg/mL) |
| COc1cc(Nc2cc(Nc3c(Cl)ccc4c3OCO4)ncn2)cc(OC)c1OC | 3.07 | 2.5 (≈ 1.08 µg/mL) |
| CCn1c2ccccc2c2cc(NC(=O)CN(C)C)ccc21 | 3.2 | 219 (≈ 64.6 µg/mL) |
| O=c1cc(-c2ccc(O)cc2)oc2cc(O)ccc12 | 3.2 | 2.3 (≈ 0.585 µg/mL) |
| O=c1[nH]c2cc(Cl)ccc2c(O)c1-c1cccc(Oc2ccccc2)c1 | 2.96 | 2.5 (≈ 0.909 µg/mL) |
| O=C(O)c1c(Sc2ccccc2)c2cc(Cl)ccc2n1Cc1ccc(Cl)cc1 | 2.96 | 132 (≈ 56.5 µg/mL) |
| CN(C)C(=O)[C@H](Cc1ccccc1)NC(=O)c1cc2sccc2[nH]1 | 3.1 | 17 (≈ 5.8 µg/mL) |
| COc1cc(OC2CCN(C)CC2)c2c(Nc3cccc4c3OCO4)ncnc2c1 | 3.02 | 91.2 (≈ 37.3 µg/mL) |
| C[C@H](NC1=NC(=O)[C@](C)(C(F)(F)F)S1)c1ccccc1F | 3.1 | 87.1 (≈ 27.9 µg/mL) |
| CC(=O)N1CCN(CCOc2cc(OC(C)C)c3c(Nc4c(F)ccc5c4OCO5)ncnc3c2)CC1 | 3.06 | 27.5 (≈ 14.1 µg/mL) |
| COc1cc(Nc2ncnc(Nc3c(Cl)ccc4c3OCO4)n2)cc(OC)c1OC | 3.01 | 6.2 (≈ 2.68 µg/mL) |
| Cn1c(C#N)ccc1-c1cc(F)c2c(c1)C(C)(C)C(=O)N2 | 3.21 | 5.4 (≈ 1.53 µg/mL) |
| CN1CCC(Oc2cccc3ncnc(Nc4ccc(OCc5cnccn5)c(Cl)c4)c23)CC1 | 3.21 | 12.3 (≈ 5.87 µg/mL) |
| CC(=O)OCCn1c(Sc2nc3cccc(Cl)c3s2)nc2c(N)ncnc21 | 3.16 | 4 (≈ 1.68 µg/mL) |
| C[C@H](NC1=NC(=O)C(C)(C(F)(F)F)S1)c1ccccc1F (stereo partly drawn) | 3.1 | 339 (≈ 109 µg/mL) |
| CNC(=O)c1cc(-c2ccccc2)sc1NC(N)=O | 3.19 | 12 (≈ 3.3 µg/mL) |
| Cn1cnc(-c2ccccc2)c1C#Cc1ccnc(N)n1 | 2.94 | 17 (≈ 4.68 µg/mL) |
| CSc1nc(N)nc(-c2ccccc2)n1 | 2.98 | 24 (≈ 5.24 µg/mL) |
| Cc1cccc(C[C@H](NC(=O)c2cc(C(C)(C)C)nn2C)C(=O)NCC#N)c1 | 3.1 | 63.1 (≈ 24.1 µg/mL) |
| COc1cc(Nc2cc(Oc3ccc(C)nc3)ccn2)cc(OC)c1OC | 3.21 | 31.6 (≈ 11.6 µg/mL) |

The next lines start with the values.

| logD [1] | solubility thermodynamic [2] [µM] | Structure (SMILES) |
| --- | --- | --- |
| 2.92 | 21.4 (≈ 7.31 µg/mL) | COc1ccc(C(=O)N2CCC(C(=O)c3ccc(F)cc3)CC2)cc1 |
| 2.9 | 30.9 (≈ 10.2 µg/mL) | O=C(c1ccc(F)cc1)C1CCN(C(=O)c2ccc(F)cc2)CC1 |
| 3.2 | 2.9 (≈ 0.938 µg/mL) | CCn1c2ccccc2c2cc(NC(=O)N3CCOCC3)ccc21 |
| 3 | 44.7 (≈ 17.1 µg/mL) | CS(=O)(=O)c1cccc(Nc2nccc(Nc3cccc4c3OCC4)n2)c1 |
| 3.15 | 10 (≈ 3.4 µg/mL) | O=C(c1ccc(F)cc1)C1CCN(C(=O)NCc2ccccc2)CC1 |
| 2.92 | 204 (≈ 69.7 µg/mL) | COc1ccc(C(=O)C2CCN(C(=O)c3ccc(F)cc3)CC2)cc1 |
| 2.9 | 16.6 (≈ 9.42 µg/mL) | O=C(CCN1CCCCC1)Nc1ccc(-c2cccn3c(=O)cc(N4CCOCC4)nc23)c2sc3ccccc3c12 |
| 2.93 | 4.2 (≈ 1.5 µg/mL) | O=C(NC1CCCCC1)C1CCCN(S(=O)(=O)c2cccs2)C1 (stereo not drawn) |
| 3 | 2.1 (≈ 1 µg/mL) | CC(C)OC(=O)N1CCC(Oc2ncnc3c2cnn3-c2ccc(S(C)(=O)=O)cc2F)CC1 |
| 3.2 | 282 (≈ 110 µg/mL) | CN(C(=O)C1CCC1)C1CCN(CCC(c2ccccc2)c2ccccc2)CC1 |
| 3.1 | 15.1 (≈ 6.42 µg/mL) | Cc1ccc(NC(=O)c2ccnc(N3CCOCC3)c2)cc1Nc1ccnc(Cl)n1 |
| 3.2 | 0.5 (≈ 0.261 µg/mL) | Cc1ccc(NC(=O)c2cccc(N3CCOCC3)c2)cc1NC(=O)c1ccc(OCc2ccncc2)cc1 |
| 3.01 | 22.9 (≈ 7.15 µg/mL) | O=C(NC1CCCCC1)c1cccnc1Sc1ccccc1 |
| 3.2 | 3.3 (≈ 1.09 µg/mL) | COc1ccc(NC(=O)c2nnc(Nc3ccccc3F)o2)cn1 |
| 2.9 | 1.9 (≈ 0.696 µg/mL) | O=C(Nc1ccc(N2CCOCC2)nc1)c1nnc(Nc2ccccc2)o1 |
| 3 | 2.6 (≈ 0.999 µg/mL) | O=C(Nc1ccc(N2CCOCC2)nc1)c1nnc(Nc2ccc(F)cc2)o1 |
| 3.1 | 6.3 (≈ 2.98 µg/mL) | O=C(Nc1ccc(N2CCOCC2)nc1)c1nnc(Nc2cccc(OCc3ccccn3)c2)o1 |
| 2.96 | 200 (≈ 93.8 µg/mL) | CC(C)(C(=O)Nc1nnc(C(=O)Nc2ccc(N3CCOCC3)cc2)o1)c1ccc(Cl)cc1 |
| 3.2 | 66.1 (≈ 31.9 µg/mL) | O=C(Nc1ccc(N2CCOCC2)cc1)c1nnc(NC(=O)C2(c3ccc(Cl)cc3)CCC2)o1 |
| 3.15 | 1.7 (≈ 0.621 µg/mL) | O=C(Nc1ccc(N2CCOCC2)cc1)c1nnc(Nc2ccccc2)o1 |
| 3 | 79.4 (≈ 33.9 µg/mL) | CC[C@@H]1COCCN1c1cc(C2(S(C)(=O)=O)CC2)nc(-c2cccc3[nH]ccc23)n1 |
| 2.9 | 17 (≈ 3.95 µg/mL) | Cc1cnc(NC(=O)Cc2ccccc2)s1 |
| 3.24 | 4 (≈ 1.93 µg/mL) | CC(C)C[C@H](N[C@@H](c1ccc(-c2ccc(S(C)(=O)=O)cc2)cc1)C(F)(F)F)C(=O)NCC#N |
| 3.19 | 214 (≈ 93.8 µg/mL) | O=C(Nc1ncc(F)s1)[C@H](CC1CCOCC1)c1ccc(S(=O)(=O)C2CC2)cc1 |
